This assay has as its target T1, human PAD4 (Homo sapiens, UniProt Q9UM07).
T1 construct: human PAD4 (NM_012387), A2-P663, was PCR amplified; His-SUMO (N, cleaved yes); made in house; host or cells: E. coli BL21(DE3)
As to the kind of experiment: In vitro PAD4 BAEE biochemical assay. Conditions: BAEE substrate 3 mM, 5 nM PAD4, 2 mM calcium chloride; geometric mean of multiple experiments. A digest of the protocol: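 Fluorescence read-out (ex 405/em 535 nm) of isoindole formed from ammonia, o-phthalaldehyde and DTT after EDTA stop. Reaction: 5 nM PAD4, 2 mM CaCl2, 3 mM BAEE, 2 h, 25 °C, after 30 min enzyme–compound preincubation. Normalised to BB-Cl-Amidine (50 µM) and DMSO controls.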

Each structure is given as a SMILES string.

T1 sequence (Q9UM07 2-663): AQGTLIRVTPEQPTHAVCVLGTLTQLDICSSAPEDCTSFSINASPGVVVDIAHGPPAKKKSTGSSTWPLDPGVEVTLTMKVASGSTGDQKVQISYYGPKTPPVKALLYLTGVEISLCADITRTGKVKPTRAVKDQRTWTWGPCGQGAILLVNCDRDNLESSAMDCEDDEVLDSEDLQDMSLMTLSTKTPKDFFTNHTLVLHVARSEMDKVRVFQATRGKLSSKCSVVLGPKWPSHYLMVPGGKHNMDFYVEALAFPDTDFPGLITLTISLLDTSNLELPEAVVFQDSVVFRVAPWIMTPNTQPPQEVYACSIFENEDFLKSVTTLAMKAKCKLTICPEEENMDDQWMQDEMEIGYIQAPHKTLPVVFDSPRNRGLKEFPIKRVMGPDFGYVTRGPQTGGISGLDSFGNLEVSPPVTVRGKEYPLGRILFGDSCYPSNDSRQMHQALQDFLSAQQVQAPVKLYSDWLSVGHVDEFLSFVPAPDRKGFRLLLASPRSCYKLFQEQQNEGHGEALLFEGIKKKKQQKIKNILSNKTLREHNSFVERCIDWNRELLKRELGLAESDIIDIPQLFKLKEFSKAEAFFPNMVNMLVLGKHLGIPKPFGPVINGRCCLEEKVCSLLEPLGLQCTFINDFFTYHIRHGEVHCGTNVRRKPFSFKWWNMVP

As to `COc1cc(C(=O)N2CCC[C@@H](N)[C@H]2C(F)F)cc2nc(-c3cc4ccc5nc4n3CC(F)(F)CCC[C@@H]3C[C@H]3C(=O)N[C@@H]5C)n(C)c12` [Example 647, (2~{R},5~{R},7~{R})-14-[5-[(2~{S},3~{R})-3-amino-2-(difluoromethyl)piperidine-1-carbonyl]-7-methoxy-1-methyl-benzimidazol-2-yl]-11,11-difluoro-2-methyl-3,13,19-triazatetracyclo[11.5.2.0^ {5,7}.0^{16,20}] icosa-1(19),14,16(20), 17-tetraen-4-one], the IC50 amounted to 58 nM. `COC(=O)[C@H]1CC[C@@H](NC(=O)c2cc(OC)c3c(c2)nc(-c2cc4ccc5nc4n2CCCCCCC(C)(C)C(=O)N[C@@H]5C)n3C)CN1` [Example 71, methyl (2~{R},5~{R})-5-[[7-methoxy-1-methyl-2-[(11~{R})-8,8,11-trimethyl-9-oxo-1,10,19-triazatricyclo[10.5.2.0^{15,18}]nonadeca-12(19),13,15(18),16-tetraen-17-yl]benzimidazole-5-carbonyl]amino]piperidine-2-carboxylate]: the IC50 was determined as 560 nM. As to `COc1cc(C(=O)N2CC[C@@H](OC(F)F)[C@@H](N)C2)cc2nc(-c3cc4ccc5nc4n3CC(F)(F)CCCC[C@@](C)(C(F)(F)F)C(=O)N[C@@H]5C)n(C)c12` [Example 730, (8~{R},11~{R})-17-[5-[(3~ {S},4~{R})-3-amino-4-(difluoromethoxy)piperidine-1-carbonyl]-7-methoxy-1-methyl-benzimidazol-2-yl]-3,3-difluoro-8,11-dimethyl-8-(trifluoromethyl)-1,10,19-triazatricyclo [10.5.2.0^{15,18}]nonadeca-12(19),13,15(18),16-tetraen-9-one], the IC50 was found to be 270 nM. Under `COc1cc(C(=O)N2CC[C@@H](OC)[C@@H](N)C2)cc2nc(-c3cc4ccc5nc4n3CCCCCc3ccnc(C)c3C(=O)N[C@@H]5C)n(C)c12` [Example 697, (2~{R})-17-[5-[(3~{S}, 4~{R})-3-amino-4-methoxy-piperidine-1-carbonyl]-7-methoxy-1-methyl-benzimidazol-2-yl]-2,6-dimethyl-3,7,16,22-tetrazatetracyclo[14.5.2.0^ {5,10}.0^{19,23}] tricosa-1(22),5(10),6,8,17, 19(23),20-heptaen-4-one] stands 74 nM. As for `COc1cc(C(=O)N2CC[C@@H](OC)[C@@H](N)C2)cc2nc(-c3cc4ccc5nc4n3CCCCC[C@H]3C[C@]3(F)C(=O)N[C@@H]5C)n(C)c12` [Example 688, (2~{R},5~{R},7~{S})-14-[5-[(3~{S},4~{R})-3-amino-4-methoxy-piperidine-1-carbonyl]-7-methoxy-1-methyl-benzimidazol-2-yl]-5-fluoro-2-methyl-3,13,19-triazatetracyclo[11.5.2.0^ {5,7}.0^{16,20}]icosa-1(19), 14,16(20),17-tetraen-4-one], the figure is 719 nM; as for `COc1cc(C(=O)N2CC[C@@H](OC(F)F)[C@@H](N)C2)cc2nc(-c3cc4ccc5nc4n3CCCCCc3nccnc3C(=O)N[C@@H]5C)n(C3CC3)c12` [Example 612, (2~{R})-17-[5-[(3~{S),4~{R})-3-amino-4-(difluoromethoxy)piperidine-1-carbonyl]-1-cyclopropyl-7-methoxy-benzimidazol-2-yl]-2-methyl-3,6,9,16,22-pentazatetracyclo [14.5.2.0^{5,10}.0^{19, 23}]tricosa-1(21),5(10), 6,8,17,19,22-heptaen-4-one], 157 nM; as for `COc1cc(C(=O)N2C[C@H](N)[C@@H]3CC[C@H]2C3)cc2nc(-c3cc4ccc5nc4n3CCCCCc3ccc(Cl)nc3C(=O)N[C@@H]5C)n(C)c12` [Example 954, (2~{R})-17-[5-[(1~{S},4~{R}, 5~{R})-4-amino-2-azabicyclo [3.2.1]octane-2-carbonyl]-7-methoxy-1-methyl-benzimidazol-2-yl]-7-chloro-2-methyl-3,6,16,22-tetrazatetracyclo[14.5.2.0^ {5,10}.0^{19,23}]tricosa-1(21),5(10),6,8,17,19,22-heptaen-4-one], 32 nM.

As to `C[C@H]1NC(=O)C(C)(C)CCCCCn2c(-c3nc4cc(C(=O)N[C@H]5CNCC[C@@H]5F)c(F)cc4n3C3CC3)cc3ccc1nc32` [Example 515, 1-cyclopropyl-6-fluoro- ~{N}-[(3~{S},4~{S})-4-fluoro-3-piperidyl]-2-[(10~{R})-7,7,10-trimethyl-8-oxo-1,9,18-triazatricyclo [9.5.2.0^{14,17}]octadeca-11(18),12,14(17),15-tetraen-16-yl]benzimidazole-5-carboxamide], the IC50 is 74 nM. As for `COc1cc(C(=O)N2C[C@H](N)[C@@H]3CC[C@H]2C3)cc2nc(-c3cc4ccc5nc4n3CCCCCc3nccc(Cl)c3C(=O)N[C@@H]5C)n(C)c12` [Example 845, (2~{R})-17-[5-[(1~{S},4~{R}, 5~{R})-4-amino-2-azabicyclo [3.2.1]octane-2-carbonyl]-7-methoxy-1-methyl-benzimidazol-2-yl]-6-chloro-2-methyl-3,9,16,22-tetrazatetracyclo[14.5.2.0^ {5,10}.0^{19,23}]tricosa-1(22),5(10),6,8,17,19(23),20-heptaen-4-one], the figure is 16 nM. For `COc1cc(C(=O)N2C[C@H](N)[C@@H]3CC[C@H]2C3)cc2nc(-c3cc4ccc5nc4n3CCCCCC[C@](F)(c3cccc(Cl)n3)C(=O)N[C@@H]5C)n(C)c12` [Example 888, (8~{S},11~{R})-17-[5-[(1~{S},4~{R},5~{R})-4-amino-2-azabicyclo[3.2.1]octane-2-carbonyl]-7-methoxy-1-methyl-benzimidazol-2-yl]-8-(6-chloro-2-pyridyl)-8-fluoro-11-methyl-1,10,19-triazatricyclo[10.5.2.0^ {15,18}]nonadeca-12(19), 13,15(18),16-tetraen-9-one], the half-maximal inhibitory concentration (IC50) came out at 37 nM. For `C[C@H]1NC(=O)[C@@H]2C[C@H]2CCCC(F)(F)Cn2c(-c3nc4cc(C(=O)N5C[C@H](N)[C@@H]6CC[C@H]5C6)cc(F)c4n3[C@@H]3C[C@@H]3F)cc3ccc1nc32` [Example 467, (2~{R},5~{R},7~{R})-14-[(1~{R})-5-[(1~{S},4~{R},5~{R})-4-amino-2-azabicyclo[3.2.1]octane-2-carbonyl]-7-fluoro-1-[(2~{S})-2-fluorocyclopropyl]benzimidazol-2-yl]-11,11-difluoro-2-methyl-3,13,19-triazatetracyclo[11.5.2.0^{5,7}.0^{16,20}] icosa-1(19),14,16(20),17-tetraen-4-one], the half-maximal inhibitory concentration (IC50) stood at 27 nM. Under `COc1cc(C(=O)N2CC[C@@H](OC)[C@@H](N)C2)cc2nc(-c3cc4ccc5nc4n3CCCCC[C@@H]3C[C@H]3C(=O)NC53CC3)n(C)c12` [Example 787, (5~{R},7~{R})-14-[5-[(3~{S}, 4~{R})-3-amino-4-methoxy-piperidine-1-carbonyl]-7-methoxy-1-methyl-benzimidazol-2-yl]spiro[3,13,19-triazatetracyclo[11.5.2.0^ {5,7}.0^{16,20}]icosa-1(18),14,16,19-tetraene-2,1′-cyclopropane]-4-one] stands 94 nM; under `COc1cc(C(=O)N2CC[C@@H](OC)[C@@H](N)C2)cc2nc(-c3cc4ccc5nc4n3CCCCCc3nccnc3C(=O)N[C@@H]5C)n(C)c12` [Example 240, (2~{R})-17-[5-[(3~{S),4~{R})-3-amino-4-methoxy-piperidine-1-carbonyl]-7-methoxy-1-methyl-benzimidazol-2-yl]-2-methyl-3,6,9,16,22-pentazatetracyclo[14.5.2.0^{5,10}.0^{19, 23}]tricosa-1(21),5(10),6,8,17,19,22-heptaen-4-one], 137 nM.

As usually defined, the IC50 is the concentration that gives 50% inhibition.

For the origin of these results see patent publication US11976083B2, “Inhibitors of peptidylarginine deiminases” (Gilead Sciences, Inc., priority 2020, dated 2024).
